Read-outs that look alike come from different tables or passages of the source.

One data set deals with Vero cells. Particulars: for cytotoxicity: African green monkey.
For another data set, the system named is VSV-EBOV-GP. Put plainly: microbe, parasite or virus in culture. Particulars: for inhibition at 0.2 µM: read-out: Inhibition% (200nM). Format: cell-based, Ebola virus (EBOV/H.sap-tc/COD/76/Yambuku-Mayinga).
Another data set in a line: in vitro. The settings on record: African green monkey.
In a further data set the target is EBOV-GP (Zaire ebolavirus, UniProt Q05320). In words: biochemical. Format: binding, Zaire EBOV (strain Mayinga-76).
Chain of EBOV-GP (Q05320 33-650 limits assumed): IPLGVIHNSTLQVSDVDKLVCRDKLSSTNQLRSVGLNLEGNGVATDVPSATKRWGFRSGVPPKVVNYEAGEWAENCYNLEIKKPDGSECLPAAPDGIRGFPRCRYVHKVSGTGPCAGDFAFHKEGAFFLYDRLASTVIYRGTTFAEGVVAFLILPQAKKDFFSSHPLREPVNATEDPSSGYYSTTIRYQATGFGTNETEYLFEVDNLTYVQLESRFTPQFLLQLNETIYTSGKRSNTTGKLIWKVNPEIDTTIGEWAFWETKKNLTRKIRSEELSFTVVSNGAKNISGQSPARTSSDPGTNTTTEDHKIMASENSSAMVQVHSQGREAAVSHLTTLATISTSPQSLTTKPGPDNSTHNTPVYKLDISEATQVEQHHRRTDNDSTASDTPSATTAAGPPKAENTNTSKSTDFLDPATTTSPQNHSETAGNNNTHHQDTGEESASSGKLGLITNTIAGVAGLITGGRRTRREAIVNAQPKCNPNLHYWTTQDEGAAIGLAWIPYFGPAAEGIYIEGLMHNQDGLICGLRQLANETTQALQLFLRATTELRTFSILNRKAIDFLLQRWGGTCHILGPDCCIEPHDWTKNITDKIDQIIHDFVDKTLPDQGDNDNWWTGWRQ
A further data set relates to VSV-LASV-GP. It counts as cell-based, Lassa virus (LASV) (Josiah).
In the next data set the test system is VSV-G. Format: cell-based, vesicular stomatitis virus.

Regarding `CC/C(=C(\c1ccccc1)c1ccc(OCCN(C)C)cc1)c1cccc(N=S(=O)(F)F)c1` [Compound 1], the cytotoxicity entry with Vero cells is recorded as “did not exhibit cytotoxicity up to 10 µM”. The same molecule returned a concentration giving a half-maximal response (EC50) with VSV-EBOV-GP (Zaire ebolavirus, Vero, 16 h) of 380 nM.

In turn, `CC/C(=C(\c1ccccc1)c1ccc(OCCN(C)C)cc1)c1cccc(NS(=O)(=O)NC2CCCOC2)c1` (centres unmarked) [Compound 2] showed an EC50 in the data set with VSV-EBOV-GP (Zaire ebolavirus, Vero, 16 h) of 470 nM.

Molecule `CC/C(=C(\c1ccccc1)c1ccc(OCCN(C)C)cc1)c1cccc(NS(=O)(=O)NCc2ncon2)c1` [Compound 3] showed an EC50 in the data set with VSV-EBOV-GP (Zaire ebolavirus, Vero, 16 h) of 550 nM.

As for `CC/C(=C(\c1ccccc1)c1ccc(OCCN(C)C)cc1)c1cccc(NS(=O)(=O)N[C@@H]2CCOC2)c1` [Compound 4R], in the data set on Vero cells, the “SI (Selectivity index = CC50/EC50)” value came out at 43 and the cytotoxicity entry was “did not show significant cytotoxicity below 10 µM”. The EC50 in the data set on VSV-EBOV-GP (Zaire ebolavirus, Vero) amounted to 351 nM. The CC50 in “in vitro” was found to be 15000 nM. Besides, binding at EBOV-GP was put at a Kd of 6400 nM.

`CC/C(=C(\c1ccccc1)c1ccc(OCCN(C)C)cc1)c1cccc(NS(=O)(=O)N[C@H]2CCOC2)c1` [Compound 4S]: in the data set on Vero cells, the “SI (Selectivity index = CC50/EC50)” value worked out at 150 and the cytotoxicity entry is on record as “did not show significant cytotoxicity below 10 µM”. Also, the “inhibition of VSV-LASV-GP” value in the data set on VSV-LASV-GP is given as “selective inhibition of VSV-EBOV-GP but not VSV-G or VSV-LASV-GP”. Besides, in the data set on VSV-EBOV-GP (Zaire ebolavirus, Vero), the EC50 is 92 nM. The molecule further gave a CC50 in “in vitro” of 14000 nM. The “inhibition of VLPs displaying VSV-G” value in the data set on VSV-G is reported as “selective inhibition of VSV-EBOV-GP but not VSV-G or VSV-LASV-GP”. In addition, at EBOV-GP, the Kd stood at 630 nM and the “affinity enhancement vs tamoxifen” value is listed as 50 fold.

Consider `CC/C(=C(\c1ccccc1)c1ccc(OCCN(C)C)cc1)c1cccc(NS(=O)(=O)NC2CCOC2)c1` (centres unmarked) [Compound 4], for which the EC50 in the data set with VSV-EBOV-GP turned out to be 240 nM; with VSV-EBOV-GP (Zaire ebolavirus, Vero), 241 nM.

In the case of `CC/C(=C(\c1ccccc1)c1ccc(OCCN(C)C)cc1)c1cccc(NS(=O)(=O)NC2COC2)c1` [Compound 5], the “SI (Selectivity index = CC50/EC50)” value in the data set with Vero cells is on record as 44. The same molecule showed an EC50 in the data set on VSV-EBOV-GP (Zaire ebolavirus, Vero) of 156 nM. Also, the CC50 in “in vitro” was 6800 nM.

Regarding `CC/C(=C(\c1ccccc1)c1ccc(OCCN(C)C)cc1)c1cccc(NS(=O)(=O)NC2COCC2C)c1` (centres unmarked) [Compound 6], the “SI (Selectivity index = CC50/EC50)” value in the data set with Vero cells is recorded as 70. Besides, a half-maximal effect in the data set on VSV-EBOV-GP (Zaire ebolavirus, Vero) (EC50) was put at 201 nM. Further, in “in vitro”, the CC50 turned out to be 14000 nM.

Consider `CC/C(=C(\c1ccccc1)c1ccc(OCCN(C)C)cc1)c1cccc(NS(=O)(=O)NC2(C)CCOC2)c1` (centres unmarked) [Compound 7], for which, in the data set on Vero cells, the “SI (Selectivity index = CC50/EC50)” value is given as 31. This molecule also returned an EC50 in the data set on VSV-EBOV-GP (Zaire ebolavirus, Vero) of 268 nM. For the same molecule, in the data set “in vitro”, the CC50 came out at 8400 nM.

With `CC/C(=C(\c1ccccc1)c1ccc(OCCN(C)C)cc1)c1cccc(NS(=O)(=O)NC2CCN(C)C2)c1` (centres unmarked) [Compound 8], in the data set with Vero cells, the “SI (Selectivity index = CC50/EC50)” value turned out to be 14. In the data set with VSV-EBOV-GP (Zaire ebolavirus, Vero), this molecule registered an EC50 of 145 nM. The molecule also showed a CC50 in “in vitro” of 2000 nM.

As to `CC/C(=C(\c1ccccc1)c1ccc(OCCN(C)C)cc1)c1cccc(NS(=O)(=O)NC2CCN(C(C)C)C2)c1` (centres unmarked) [Compound 9], in the data set on Vero cells, the “SI (Selectivity index = CC50/EC50)” value is 4.3. For the same molecule, in the data set on VSV-EBOV-GP (Zaire ebolavirus, Vero), the EC50 amounted to 790 nM. Moreover, in “in vitro”, the CC50 worked out at 3400 nM.

As to `CC/C(=C(\c1ccccc1)c1ccc(OCCN(C)C)cc1)c1cccc(NS(=O)(=O)N[C@H]2CCN(C)C2)c1` [Compound 10], the “SI (Selectivity index = CC50/EC50)” value with Vero cells is on record as 4.5. The molecule also yielded an EC50 in the data set on VSV-EBOV-GP (Zaire ebolavirus, Vero) of 664 nM. Besides, the CC50 in “in vitro” was found to be 3000 nM.

Take `CC/C(=C(\c1ccccc1)c1ccc(OCCN(C)C)cc1)c1cccc(NS(=O)(=O)N[C@@H]2CCN(C)C2)c1` [Compound 11]: the “SI (Selectivity index = CC50/EC50)” value in the data set on Vero cells was 6.3. This molecule came in with an EC50 in the data set on VSV-EBOV-GP (Zaire ebolavirus, Vero) of 575 nM. Further, the CC50 in “in vitro” worked out at 3600 nM.

Turning to `CC/C(=C(\c1ccccc1)c1ccc(OCCN(C)C)cc1)c1cccc(NS(=O)(=O)NC2CCN(CC)C2)c1` (centres unmarked) [Compound 12], the “SI (Selectivity index = CC50/EC50)” value with Vero cells was 4.8. In the data set with VSV-EBOV-GP (Zaire ebolavirus, Vero), this molecule had an EC50 of 841 nM. The molecule also registered a CC50 in the data set “in vitro” of 4000 nM.

On to `CC/C(=C(\c1ccccc1)c1ccc(OCCN(C)C)cc1)c1cccc(NS(=O)(=O)N[C@H]2CCN(C(CC)CC)C2)c1` [Compound 13], for which the “SI (Selectivity index = CC50/EC50)” value in the data set on Vero cells is listed as 6.5. Also, in the data set with VSV-EBOV-GP (Zaire ebolavirus, Vero), a half-maximal response (EC50) required 813 nM. The CC50 in “in vitro” was 5300 nM.

As for `CCCN1CCC(NS(=O)(=O)Nc2cccc(/C(CC)=C(/c3ccccc3)c3ccc(OCCN(C)C)cc3)c2)C1` (centres unmarked) [Compound 14], the “SI (Selectivity index = CC50/EC50)” value with Vero cells is on record as 5.0. This molecule also yielded an EC50 in the data set on VSV-EBOV-GP (Zaire ebolavirus, Vero) of 618 nM. This molecule also yielded a CC50 in the data set “in vitro” of 3100 nM.

As for `CC/C(=C(\c1ccccc1)c1ccc(OCCN(C)C)cc1)c1cccc(NS(=O)(=O)NC2CCN(CCCO)C2)c1` (centres unmarked) [Compound 15], in the data set on Vero cells, the “SI (Selectivity index = CC50/EC50)” value was found to be 4.5. For the same molecule, in the data set on VSV-EBOV-GP (Zaire ebolavirus, Vero), the EC50 was found to be 1720 nM. Further, the CC50 in “in vitro” was 7700 nM.

`CC/C(=C(\c1ccccc1)c1ccc(OCCN(C)C)cc1)c1ccc(NS(=O)(=O)NCc2ccn[nH]2)cc1` [Compound B02, CC/C(=C(\c1ccccc1)c1ccc(OCCN(C)C)cc1)c1ccc(NS(=O)(=O)NCc2ccn[nH]2)cc1]: the inhibition at 0.2 µM in the data set with VSV-EBOV-GP (Zaire ebolavirus, Vero) is 4.27%.

In the case of `CC/C(=C(\c1ccccc1)c1ccc(OCCN(C)C)cc1)c1ccc(N=S(=O)(F)N(C)Cc2ccn[nH]2)cc1` (centres unmarked) [Compound C02, CC/C(=C(\c1ccccc1)c1ccc(OCCN(C)C)cc1)c1ccc(N=S(=O)(F)N(C)Cc2ccn[nH]2)cc1], in the data set with VSV-EBOV-GP (Zaire ebolavirus, Vero), the inhibition at 0.2 µM amounted to 2.05%.

`CC/C(=C(\c1ccccc1)c1ccc(OCCN(C)C)cc1)c1ccc(NS(=O)(=O)NCc2n[nH]c(=O)[nH]2)cc1` [Compound D02, CC/C(=C(\c1ccccc1)c1ccc(OCCN(C)C)cc1)c1ccc(NS(=O)(=O)NCc2n[nH]c(=O)[nH]2)cc1]: the inhibition at 0.2 µM with VSV-EBOV-GP (Zaire ebolavirus, Vero) is -0.485%.

`CC/C(=C(\c1ccccc1)c1ccc(OCCN(C)C)cc1)c1ccc(N=S(=O)(F)N(C)Cc2n[nH]c(=O)[nH]2)cc1` (centres unmarked) [Compound E02, CC/C(=C(\c1ccccc1)c1ccc(OCCN(C)C)cc1)c1ccc(N=S(=O)(F)N(C)Cc2n[nH]c(=O)[nH]2)cc1]: the inhibition at 0.2 µM with VSV-EBOV-GP (Zaire ebolavirus, Vero) is 11%.

In the case of `CC/C(=C(\c1ccccc1)c1ccc(OCCN(C)C)cc1)c1ccc(NS(=O)(=O)NC(C)c2n[nH]c(=O)[nH]2)cc1` (centres unmarked) [Compound F02, CC/C(=C(\c1ccccc1)c1ccc(OCCN(C)C)cc1)c1ccc(NS(=O)(=O)NC(C)c2n[nH]c(=O)[nH]2)cc1], in the data set with VSV-EBOV-GP (Zaire ebolavirus, Vero), the inhibition at 0.2 µM was 14.1%.

For `CC/C(=C(\c1ccccc1)c1ccc(OCCN(C)C)cc1)c1ccccc1` [Tamoxifen, tamoxifen, reference compound], in the data set with VSV-LASV-GP, the “inhibition of VSV-LASV-GP” value is listed as “selective inhibition of VSV-EBOV-GP but not VSV-G or VSV-LASV-GP”. Besides, the “inhibition of VLPs displaying VSV-G” value in the data set on VSV-G is on record as “selective inhibition of VSV-EBOV-GP but not VSV-G or VSV-LASV-GP”.

For orientation: EC50 means the concentration needed to bring the measured effect to its halfway point. The Kd is the equilibrium constant for the complex coming apart. As a reminder, the inhibition is the drop in the measured response relative to a control, in per cent.

Source of the values: paper PMC12066687 (Frontiers in Immunology, 2025).
